Source: patent publication US6911443B2 (Bayer Aktiengesellschaft, priority 2000, dated 2005)

These compounds were tested against T1, human Syk (GST-Syk) (Homo sapiens, UniProt P43405) (assay: Syk tyrosine kinase inhibitory assay). Conditions: in vitro; compounds as yielded by solid phase synthesis, purity about 40 to 90%.
T1 construct: A cDNA fragment encoding human Syk openreading frame was cloned; made in house; host or cells: Sf21 insect cells (baculovirus, transfer vector pAcG2T)
Format: biochemical
Outline: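 Readout: streptavidin-captured biotin-AL peptide probed with europium-4G10 anti-phosphotyrosine, time-resolved fluorescence (ex 340/em 615 nm). Reaction ran 1 h at room temperature with 30 μM ATP, 3 μM peptide, 0.65 nM Sf21-expressed GST-Syk and 0.25% DMSO, pH 8.0.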

| Activity grade (IC50 class) | SMILES |
| --- | --- |
| C-D | COc1ccc(-c2cc3nccn3c(N(C)c3ccc(C(=O)O)cc3)n2)cc1OC [Example 11-42] |

Same assay, conditions: in vitro; compounds as yielded by solid phase synthesis, purity about 40 to 90%; read-out: Activity grade (IC50 class)

| SMILES | IC50 |
| --- | --- |
| COc1ccc(-c2cc3nccn3c(Nc3cccc(CO)c3)n2)cc1OC [Example 11-37] | < 0.5 µM |
| COc1ccc(-c2cc3nccn3c(N(C)c3ccc([N+](=O)[O-])cc3)n2)cc1OC [Example 11-43] | < 0.5 µM |
| COc1ccc(-c2cc3nccn3c(N(C)c3ccc(Cl)cc3)n2)cc1OC [Example 11-45] | 0.5 to 2 µM |
| COc1ccc(-c2cc3nccn3c(N(C)c3ccc(OC(F)(F)F)cc3)n2)cc1OC [Example 11-46] | 0.5 to 2 µM |
| C=CCN(c1ccccc1)c1nc(-c2ccc(OC)c(OC)c2)cc2nccn12 [Example 11-47] | < 0.5 µM |
| COc1ccc(-c2cc3nccn3c(N(CCC#N)c3ccccc3)n2)cc1OC [Example 11-48] | < 0.5 µM |
| COc1ccc(N(C)c2nc(-c3ccc(OC)c(OC)c3)cc3nccn23)cc1 [Example 11-49] | 0.5 to 2 µM |
| COc1ccc(-c2cc3nccn3c(N(C)c3cccc(Cl)c3)n2)cc1OC [Example 11-50] | < 0.5 µM |
| COc1ccc(-c2cc3nccn3c(Nc3ccccc3[N+](=O)[O-])n2)cc1OC [Example 11-56] | < 0.5 µM |
| COc1ccc(-c2cc3nccn3c(Nc3cccc(C(C)=O)c3)n2)cc1OC [Example 11-59] | < 0.5 µM |
| COc1ccc(-c2cc3nccn3c(Nc3ccc(CC#N)cc3)n2)cc1OC [Example 11-63] | < 0.5 µM |
| COc1ccc(-c2cc3nccn3c(Nc3cccc(C(=N)N)c3)n2)cc1OC [Example 11-66] | < 0.5 µM |
| COc1ccc(-c2cc3nccn3c(Nc3ccc(C(=N)N)cc3)n2)cc1OC [Example 11-67] | < 0.5 µM |
| CCN(CCO)c1ccc(Nc2nc(-c3ccc(OC)c(OC)c3)cc3nccn23)cc1 [Example 11-68] | < 0.5 µM |
| COc1ccc(-c2cc3nccn3c(Nc3cccc(OC(F)(F)F)c3)n2)cc1OC [Example 11-69] | < 0.5 µM |
| COc1ccc(-c2cc3nccn3c(Nc3cccc([N+](=O)[O-])c3)n2)cc1OC [Example 11-70] | < 0.5 µM |
| COc1ccc(-c2cc3nccn3c(Nc3ccc(C(F)(F)F)cc3)n2)cc1OC [Example 11-71] | < 0.5 µM |
| CNC(=O)c1cccc(Nc2nc(-c3ccc(OC)c(OC)c3)cc3nccn23)c1 [Example 11-72] | < 0.5 µM |

Now from value to compound:

| IC50 | SMILES |
| --- | --- |
| < 0.5 µM | COc1ccc(-c2cc3nccn3c(Nc3cc(F)cc(F)c3)n2)cc1OC [Example 11-39] |
| < 0.5 µM | COc1ccc(-c2cc3nccn3c(Nc3cc(F)c(F)cc3F)n2)cc1OC [Example 11-40] |
| < 0.5 µM | COc1ccc(-c2cc3nccn3c(Nc3ccc(F)cc3C(=O)O)n2)cc1OC [Example 11-41] |
| < 0.5 µM | COc1ccc(-c2cc3nccn3c(N(C)c3ccc(F)cc3F)n2)cc1OC [Example 11-44] |
| 0.5 to 2 µM | COc1ccc(-c2cc3nccn3c(Nc3cccc(C(=O)O)c3C)n2)cc1OC [Example 11-51] |
| < 0.5 µM | COc1ccc(-c2cc3nccn3c(Nc3cccc(Br)c3)n2)cc1OC [Example 11-52] |
| < 0.5 µM | COc1ccc(-c2cc3nccn3c(Nc3ccccc3F)n2)cc1OC [Example 11-53] |
| < 0.5 µM | COc1ccc(-c2cc3nccn3c(Nc3ccc(F)cc3F)n2)cc1OC [Example 11-54] |
| < 0.5 µM | COc1ccc(-c2cc3nccn3c(Nc3ccccc3Cl)n2)cc1OC [Example 11-55] |
| < 0.5 µM | COc1ccc(-c2cc3nccn3c(Nc3ccc(F)c(F)c3)n2)cc1OC [Example 11-57] |
| < 0.5 µM | COc1cccc(Nc2nc(-c3ccc(OC)c(OC)c3)cc3nccn23)c1 [Example 11-58] |
| < 0.5 µM | COc1ccc(-c2cc3nccn3c(Nc3ccc(F)cc3)n2)cc1OC [Example 11-60] |
| < 0.5 µM | COc1ccc(-c2cc3nccn3c(Nc3ccc(Cl)cc3)n2)cc1OC [Example 11-61] |
| < 0.5 µM | COc1ccc(-c2cc3nccn3c(Nc3ccc(N)cc3)n2)cc1OC [Example 11-62] |
| < 0.5 µM | COc1ccc(Nc2nc(-c3ccc(OC)c(OC)c3)cc3nccn23)c(OC)c1 [Example 11-65] |
